# Results as given in patent publication US8143212B2 (Vicuron Pharmaceuticals Inc., priority 2002, dated 2012).
# Where two headings read alike, the source gives them in different places.
# How the values were obtained:
# [1] = human, in vivo
# Description: The peak concentrations (Cmax) were obtained directly from the observed data. The area under the plasma concentration-time curve (AUC) were calculated using the linear trapezoidal rule.
# Clinical Study VER001-13 examined subjects with mild and moderate renal impairment and Clinical Study VER001-1 examined subjects with severe renal impairment and subjects with end-stage renal disease (ESRD). Matched control subjects were enrolled in all studies. […] Subjects with ESRD were dependent on dialysis through the course of the study (3 times weekly).
# [2] = in vitro; assay type: cell-based, S. aureus; conditions: mouse, serum
# Text: This degree of binding was considered in subsequent pharmacodynamic analyses. The degree of binding in human serum would be estimated to be 96%.
# [3] = in vivo; conditions: Swiss ICR, mouse, plasma, ip
# Description: Neutropenia in this and all other studies was produced by injections of cyclophosphamide, 150 mg/kg 4 days prior to study, 100 mg/kg 1 day prior to study and 100 mg/kg every 48 h after start of infection until end of study. Neutrophil counts remained less than 100/mm^3 for the duration of study. Doses of 2.5, 5, 10, 20; 40, and 80 mg/kg were studied. Drug was administered by intraperitoneal injection of 0.2 ml volume. Blood was removed from groups of three mice by retroorbital aspiration into heparinized capillary tubes at 0.5, 1, 2, 4, 6, 24, 48, 72, and 96 hours after dosing. […] AUC was calculated by the trapezoidal rule from mean concentrations.
# [4] = tested on: S haemolyticus; experiment: MIC, microbiological activity (Table 3); assay type: cell-based; conditions: L 602 S haemolyticus clin. isolate; read-out: MIC
# [5] = tested on: S. aureus; experiment: MIC by NCCLS microdilution of study organisms (Table 29); assay type: cell-based
# Description: (§1) MICs were determined in MHB by standard NCCLS microdilution techniques. […] All MICs were performed at least in duplicate.
# [6] = tested on: S. pneumoniae; experiment: as above; assay type: cell-based; conditions: Streptococcus pneumoniae
# Description: as §1
# [7] = tested on: Gram-positive isolates, including MRSA; assay type: cell-based; conditions: baseline isolates, MITT
# [8] = human, in vivo; remark: listed apart in the source
# Description: The study enrolled otherwise healthy subjects with mild, moderate, or severe hepatic impairment (Child-Pugh scores 5 to 6, 7 to 9, and 10 to 15, respectively) and matched control subjects with normal hepatic function.
# [9] = tested on: S. pneumoniae; experiment: Murine thigh-infection model (time kill, dosing regimen, PK/PD, neutrophils; Tables 31-33); assay type: in vivo, mice; conditions: for 1 log kill mg/kg / 2 log kill mg/kg: total dose over 6 days
# Description: Each point represents the mean of 4 thighs. Five dose levels, ranging 16-fold were used.
# Five different doses (two-fold increases) were used. […] Each point represents the mean of 4 thighs.
# Each point represents the mean of four thighs.
# Each point represents the mean value from 4 thighs. The static dose, and the doses associated with a 1 and 2 log kill were calculated from the parameters estimated by non-linear regression using the Hill equation.
# [10] = tested on: bacteria; experiment: Minimum bactericidal concentration; assay type: cell-based; conditions: in plasma
# Text: The amount of dalbavancin administered may be any of the dosages disclosed herein.
# [11] = Staphylococcus aureus, MRSA, S. aureus strain MRSA
# [12] = Staphylococcus aureus, S. aureus strain Smith
# [13] = Mean ± SD of S. pneumoniae strains, q 24 h regimen
# [14] = Mean ± SD of S. pneumoniae strains, q 72 h regimen
structure (smiles),measurement,setting,value
CN[C@H]1C(=O)N[C@@H]2Cc3ccc(cc3)Oc3cc4cc(c3O[C@@H]3O[C@H](C(=O)O)[C@@H](O)[C@H](O)[C@H]3NC(=O)CCCCCCCCC(C)C)Oc3ccc(cc3Cl)[C@@H](O)[C@@H]3NC(=O)[C@H](NC(=O)[C@@H]4NC(=O)[C@@H](NC2=O)c2cc(cc(O)c2Cl)Oc2cc1ccc2O)c1ccc(O)c(c1)-c1c(O[C@H]2O[C@H](CO)[C@@H](O)[C@H](O)[C@@H]2O)cc(O)cc1[C@@H](C(=O)NCCCN(C)C)NC3=O [Dalbavancin],tolerability,[1],well tolerated
same,Cmax,[1]; 1120 mg,325 µg/mL
same,fraction unbound,[2],0.004
same,half-life,[3],7.6 to 13.1 h
same,MIC,[4],> 32 µg/mL
same,MBC,[5]; S. aureus strain 25923,0.25 µg/mL
same,MIC,[5]; S. aureus strain MRSA,0.06 µg/mL
same,MBC,[5]; S. aureus strain Smith,0.25 µg/mL
same,MIC,[5]; S. aureus strain Smith,0.12 µg/mL
same,MBC,[5]; [11],0.25 µg/mL
same,MIC,[5]; [11],0.12 µg/mL
same,MBC,"[5]; Staphylococcus aureus, S. aureus strain 25923",0.5 µg/mL
same,MIC,"[5]; Staphylococcus aureus, S. aureus strain 31005",0.06 µg/mL
same,MBC,"[5]; Staphylococcus aureus, S. aureus strain 33591",0.25 µg/mL
same,MIC,"[5]; Staphylococcus aureus, S. aureus strain 307109",0.06 µg/mL
same,MBC,[5]; [12],0.5 µg/mL
same,MIC,[5]; [12],0.06 µg/mL
same,MIC,"[5]; Staphylococcus aureus, read-out: MICs, six S. aureus isolates",0.06 to 0.12 µg/mL
same,MIC,[6]; S. pneumoniae SP1396,0.008 µg/mL
same,MIC,"[6]; S. pneumoniae strain 1199, read-out: MIC",0.004 µg/mL
same,MIC,"[6]; S. pneumoniae strain 1293, read-out: MIC",0.004 µg/mL
same,MIC,"[6]; S. pneumoniae strain 1325, read-out: MIC",0.008 µg/mL
same,MIC,"[6]; S. pneumoniae strain 1329, read-out: MIC",0.008 µg/mL
same,MIC,"[6]; S. pneumoniae strain 10813, read-out: MIC",0.03 µg/mL
same,MIC,"[6]; five pneumococcal organisms, read-out: MICs",0.004 to 0.03 µg/mL
same,Dalbavancin MIC,"[7]; All S. aureus, Single dose Dalbavancin (1100 mg) group",(0.12)
same,Dalbavancin MIC,"[7]; All S. aureus, Standard of Care Regimens group",(0.016-0.25)
same,Dalbavancin MIC,"[7]; All S. aureus, Two-dose Dalbavancin (1000/500 mg) group",(0.12)
same,Dalbavancin MIC,"[7]; Group B streptococcus, Standard of Care Regimens group",(0.016)
same,Dalbavancin MIC,"[7]; Group B streptococcus, Two-dose Dalbavancin (1000/500 mg) group",(0.016)
same,Dalbavancin MIC,"[7]; Miscellaneous Streptococcus and nontypeable strains, Single dose Dalbavancin (1100 mg) group",(0.016)
same,Dalbavancin MIC,"[7]; Miscellaneous Streptococcus and nontypeable strains, Standard of Care Regimens group",(0.016)
same,Dalbavancin MIC,"[7]; Miscellaneous Streptococcus and nontypeable strains, Two-dose Dalbavancin (1000/500 mg) group",(0.016)
same,Dalbavancin MIC,"[7]; Streptococcus pyogenes, Standard of Care Regimens group",(0.016)
same,tolerability,[8],well tolerated
same,1 Log Kill f24AUC/MIC,[9]; [13],21 ± 7.4
same,1 Log Kill mg/kg/24 h,[9]; [13],1.1 ± 0.47 mg/kg/24 h
same,2 Log Kill f24AUC/MIC,[9]; [13],24.3 ± 8.2
same,2 Log Kill mg/kg/24 h,[9]; [13],1.23 ± 0.52 mg/kg/24 h
same,Static Effect f24AUC/MIC,[9]; [13],17.6 ± 6.9
same,Static Effect mg/kg/24 h,[9]; [13],0.91 ± 0.44 mg/kg/24 h
same,1 Log Kill f24AUC/MIC,[9]; [14],9.0 ± 5.8
same,1 Log Kill mg/kg/24 h,[9]; [14],0.93 ± 0.24 mg/kg/24 h
same,2 Log Kill f24AUC/MIC,[9]; [14],16.6 ± 12.3
same,2 Log Kill mg/kg/24 h,[9]; [14],1.13 ± 0.36 mg/kg/24 h
same,Static Effect f24AUC/MIC,[9]; [14],7.2 ± 4.5
same,Static Effect mg/kg/72 h,[9]; [14],0.77 ± 0.18 mg/kg/72 h
same,1 Log Kill f24AUC/MIC,"[9]; SP1199, q 24 h regimen",19.4
same,1 Log Kill mg/kg/24 h,"[9]; SP1199, q 24 h regimen",0.49 mg/kg/24 h
same,2 Log Kill f24AUC/MIC,"[9]; SP1199, q 24 h regimen",22.7
same,2 Log Kill mg/kg/24 h,"[9]; SP1199, q 24 h regimen",0.57 mg/kg/24 h
same,Static Effect f24AUC/MIC,"[9]; SP1199, q 24 h regimen",16.0
same,Static Effect mg/kg/24 h,"[9]; SP1199, q 24 h regimen",0.40 mg/kg/24 h
same,1 Log Kill f24AUC/MIC,"[9]; SP1199, q 72 h regimen",12.1
same,1 Log Kill mg/kg/24 h,"[9]; SP1199, q 72 h regimen",0.85 mg/kg/24 h
same,2 Log Kill f24AUC/MIC,"[9]; SP1199, q 72 h regimen",35.3
same,2 Log Kill mg/kg/24 h,"[9]; SP1199, q 72 h regimen",0.99 mg/kg/24 h
same,Static Effect f24AUC/MIC,"[9]; SP1199, q 72 h regimen",10.3
same,Static Effect mg/kg/72 h,"[9]; SP1199, q 72 h regimen",0.72 mg/kg/72 h
same,1 Log Kill f24AUC/MIC,"[9]; SP1293, q 24 h regimen",21.7
same,1 Log Kill mg/kg/24 h,"[9]; SP1293, q 24 h regimen",0.55 mg/kg/24 h
same,2 Log Kill f24AUC/MIC,"[9]; SP1293, q 24 h regimen",25.9
same,2 Log Kill mg/kg/24 h,"[9]; SP1293, q 24 h regimen",0.65 mg/kg/24 h
same,Static Effect f24AUC/MIC,"[9]; SP1293, q 24 h regimen",17.4
same,Static Effect mg/kg/24 h,"[9]; SP1293, q 24 h regimen",0.44 mg/kg/24 h
same,1 Log Kill f24AUC/MIC,"[9]; SP1293, q 72 h regimen",18
same,1 Log Kill mg/kg/24 h,"[9]; SP1293, q 72 h regimen",1.28 mg/kg/24 h
same,2 Log Kill f24AUC/MIC,"[9]; SP1293, q 72 h regimen",23.8
same,2 Log Kill mg/kg/24 h,"[9]; SP1293, q 72 h regimen",1.68 mg/kg/24 h
same,Static Effect f24AUC/MIC,"[9]; SP1293, q 72 h regimen",14.1
same,Static Effect mg/kg/72 h,"[9]; SP1293, q 72 h regimen",1.01 mg/kg/72 h
same,1 Log Kill f24AUC/MIC,"[9]; SP1325, q 24 h regimen",31.8
same,1 Log Kill mg/kg/24 h,"[9]; SP1325, q 24 h regimen",1.6 mg/kg/24 h
same,2 Log Kill f24AUC/MIC,"[9]; SP1325, q 24 h regimen",34.5
same,2 Log Kill mg/kg/24 h,"[9]; SP1325, q 24 h regimen",1.73 mg/kg/24 h
same,Static Effect f24AUC/MIC,"[9]; SP1325, q 24 h regimen",29.0
same,Static Effect mg/kg/24 h,"[9]; SP1325, q 24 h regimen",1.46 mg/kg/24 h
same,1 Log Kill f24AUC/MIC,"[9]; SP1325, q 72 h regimen",8.8
same,1 Log Kill mg/kg/24 h,"[9]; SP1325, q 72 h regimen",0.99 mg/kg/24 h
same,2 Log Kill f24AUC/MIC,"[9]; SP1325, q 72 h regimen",17.6
same,2 Log Kill mg/kg/24 h,"[9]; SP1325, q 72 h regimen",1.16 mg/kg/24 h
same,Static Effect f24AUC/MIC,"[9]; SP1325, q 72 h regimen",6.0
same,Static Effect mg/kg/72 h,"[9]; SP1325, q 72 h regimen",0.83 mg/kg/72 h
same,1 Log Kill f24AUC/MIC,"[9]; SP1329, q 24 h regimen",23.5
same,1 Log Kill mg/kg/24 h,"[9]; SP1329, q 24 h regimen",1.18 mg/kg/24 h
same,2 Log Kill f24AUC/MIC,"[9]; SP1329, q 24 h regimen",26.7
same,2 Log Kill mg/kg/24 h,"[9]; SP1329, q 24 h regimen",1.45 mg/kg/24 h
same,Static Effect f24AUC/MIC,"[9]; SP1329, q 24 h regimen",18.0
same,Static Effect mg/kg/24 h,"[9]; SP1329, q 24 h regimen",0.90 mg/kg/24 h
same,1 Log Kill f24AUC/MIC,"[9]; SP1396, q 72 h regimen",4.3
same,1 Log Kill mg/kg/24 h,"[9]; SP1396, q 72 h regimen",0.61 mg/kg/24 h
same,2 Log Kill f24AUC/MIC,"[9]; SP1396, q 72 h regimen",4.8
same,2 Log Kill mg/kg/24 h,"[9]; SP1396, q 72 h regimen",0.69 mg/kg/24 h
same,Static Effect f24AUC/MIC,"[9]; SP1396, q 72 h regimen",4.0
same,Static Effect mg/kg/72 h,"[9]; SP1396, q 72 h regimen",0.52 mg/kg/72 h
same,1 log kill mg/kg,"[9]; SP10813, q 12 h",2.8 mg/kg
same,2 log kill mg/kg,"[9]; SP10813, q 12 h",3.5 mg/kg
same,1 log kill mg/kg,"[9]; SP10813, q 24 h",1.54 mg/kg
same,2 log kill mg/kg,"[9]; SP10813, q 24 h",1.75 mg/kg
same,1 Log Kill f24AUC/MIC,"[9]; SP10813, q 24 h regimen",8.7
same,1 Log Kill mg/kg/24 h,"[9]; SP10813, q 24 h regimen",1.54 mg/kg/24 h
same,2 Log Kill f24AUC/MIC,"[9]; SP10813, q 24 h regimen",9.9
same,2 Log Kill mg/kg/24 h,"[9]; SP10813, q 24 h regimen",1.75 mg/kg/24 h
same,Static Effect f24AUC/MIC,"[9]; SP10813, q 24 h regimen",7.5
same,Static Effect mg/kg/24 h,"[9]; SP10813, q 24 h regimen",1.34 mg/kg/24 h
same,1 log kill mg/kg,"[9]; SP10813, q 36 h",1.53 mg/kg
same,2 log kill mg/kg,"[9]; SP10813, q 36 h",1.81 mg/kg
same,1 log kill mg/kg,"[9]; SP10813, q 72 h",0.77 mg/kg
same,2 log kill mg/kg,"[9]; SP10813, q 72 h",0.82 mg/kg
same,1 Log Kill f24AUC/MIC,"[9]; SP10813, q 72 h regimen",1.6
same,1 Log Kill mg/kg/24 h,"[9]; SP10813, q 72 h regimen",0.77 mg/kg/24 h
same,2 Log Kill f24AUC/MIC,"[9]; SP10813, q 72 h regimen",1.6
same,2 Log Kill mg/kg/24 h,"[9]; SP10813, q 72 h regimen",0.82 mg/kg/24 h
same,Static Effect f24AUC/MIC,"[9]; SP10813, q 72 h regimen",1.4
same,Static Effect mg/kg/72 h,"[9]; SP10813, q 72 h regimen",0.71 mg/kg/72 h
same,drop in cfu,"[9]; all strains, 6 day study",> 4 log10
same,free drug 24 h AUC/MIC associated with a static effect,[9]; every 24 h dosing,17.6±6.9
same,free drug AUC/MIC required for efficacy,"[9]; over the 6 days of therapy, net static effect, 1 or 2 log kill",~100
same,extent of killing,"[9]; single doses, highest doses studied",> 2 log
same,MBC,[10],~4 µg/mL
